Assay: xn = mol fraction of the nth substance listed
Settings: 323.15 K, 100 kPa, Liquid, Alternating current cell with electrodes

CCCC[N+]1(C)CCCC1.N#CN=C=[N-] [1-butyl-1-methylpyrrolidinium dicyanamide] + O=C1CCCO1
electrical conductivity [S/m]
Settings | Frequency=0.001 MHz | Frequency=0.0015 MHz | Frequency=0.002 MHz | Frequency=0.0025 MHz | Frequency=0.003 MHz | Frequency=0.00347222 MHz | Frequency=0.004 MHz | Frequency=0.00446429 MHz | Frequency=0.005 MHz | Frequency=0.005454 MHz
x1 = 0.0463 | – | 2 | 2 | 2.01 | 2.01 | 2.01 | 2.01 | 2.01 | 2.01 | 2.01
x1 = 0.0987 | 3.06 | 3.07 | 3.07 | 3.07 | 3.08 | 3.08 | 3.08 | 3.08 | 3.08 | 3.08
x1 = 0.1449 | 3.56 | 3.56 | 3.56 | 3.56 | 3.56 | 3.57 | 3.57 | 3.57 | 3.57 | 3.57
x1 = 0.1859 | 3.83 | 3.84 | 3.84 | 3.85 | 3.85 | 3.85 | 3.85 | 3.85 | 3.85 | 3.85
x1 = 0.2493 | 3.89 | 3.89 | 3.89 | 3.89 | 3.89 | 3.89 | 3.89 | 3.89 | 3.89 | 3.89
x1 = 0.3029 | 3.86 | 3.87 | 3.87 | 3.87 | 3.87 | 3.87 | 3.87 | 3.87 | 3.87 | 3.88
x1 = 0.3845 | 3.732 | 3.73 | 3.74 | 3.74 | 3.74 | 3.74 | 3.74 | 3.74 | 3.74 | 3.74
x1 = 0.4985 | 3.46 | 3.46 | 3.46 | 3.46 | 3.46 | 3.46 | 3.46 | 3.46 | 3.46 | 3.46
x1 = 0.6954 | 2.99 | 2.99 | 2.99 | 2.99 | 2.99 | 2.99 | 2.99 | 2.99 | 2.99 | 2.99
x1 = 0.9013 | 2.626 | 2.628 | 2.63 | 2.63 | 2.631 | 2.632 | 2.632 | 2.632 | 2.633 | –
x1 = 1 | 2.526 | 2.527 | 2.528 | 2.528 | 2.528 | 2.528 | 2.529 | 2.529 | 2.529 | –

Source: the NIST ThermoML archive (doi:10.1016/j.jct.2015.08.014)
